{"source": "patent US20250025454A1", "about": "(priority 2021, published 2025)", "key": {"SARS-CoV-2/WA1": {"system": "SARS-CoV-2/WA1", "assay_type": "cell-based"}, "[1]": {"settings": "female, 129S1, mouse, in vivo, po"}, "[2]": {"settings": "female, 129/S, mouse, in vivo"}, "in vivo": {"assay": "in vivo", "settings": "female, 129S1, mouse; for Tmax: range"}}, "note": "Read-outs that look alike come from different tables or passages of the source."}
{"compound": "Cc1c(-c2ccc(O)cc2)n(Cc2ccc(OCCN3CCCCC3)cc2)c2ccc(O)cc12", "note": "[Pipendoxifene, 2-(4-hydroxyphenyl)-3-methyl-1-[[4-(2-piperidin-1-ylethoxy)phenyl]methyl]indol-5-ol]", "values": [{"measurement": "IC50 expressed as mass concentration", "setting": "SARS-CoV-2/WA1", "value": 0.328, "unit": "mg/L"}, {"measurement": "lung concentrations achieved", "setting": "[1]", "value": "greater than 30 ug/g"}, {"measurement": "Plasma concentration", "setting": "[1]; 250 mg/kg, 24 h", "value": 0.034, "unit": "µg/mL"}, {"measurement": "C24h plasma concentration", "setting": "[2]; 125 mg/kg", "value": 0.29, "unit": "µg/mL"}, {"measurement": "C24h plasma concentration", "setting": "[2]; 250 mg/kg", "value": 0.194, "unit": "µg/mL"}, {"measurement": "Lung concentration", "setting": "[2]; po, 250 mg/kg", "value": 784, "unit": "ng/mL"}, {"measurement": "Plasma concentration", "setting": "[2]; po, 250 mg/kg", "value": 0.194, "unit": "µg/mL"}, {"measurement": "Kp", "setting": "in vivo", "value": "~50"}, {"measurement": "Tmax", "setting": "in vivo; 250 mg/kg, Mean Tmax (plasma)", "value": "2 to 6", "unit": "h"}, {"measurement": "Tmax", "setting": "in vivo; 250 mg/kg, Tmax (lung)", "value": "4 to 8", "unit": "h"}, {"measurement": "Cmax at 5 day", "setting": "in vivo; po, 50 mg/kg", "value": "0.178 ± 0.008", "unit": "µg/mL"}, {"measurement": "MRT last", "setting": "in vivo; po, 50 mg/kg", "value": 6.79, "unit": "h"}, {"measurement": "MRT last at 5 day", "setting": "in vivo; po, 50 mg/kg", "value": 7.35, "unit": "h"}, {"measurement": "Tmax at 5 day", "setting": "in vivo; po, 50 mg/kg", "value": 5, "unit": "h"}, {"measurement": "Cmax at 5 day", "setting": "in vivo; po, 250 mg/kg", "value": "1.05 ± 0.23", "unit": "µg/mL"}, {"measurement": "MRT last", "setting": "in vivo; po, 250 mg/kg", "value": 8.27, "unit": "h"}, {"measurement": "Tmax at 5 day", "setting": "in vivo; po, 250 mg/kg", "value": 6, "unit": "h"}]}
